Data as given in publication PMC4490784, “Compensatory induction of MYC expression by sustained CDK9 inhibition via a BRD4-dependent mechanism” (eLife, 2015).

Columns and labels:
Assay in all cases: KINOMEscan binding assay
[1] = molecular target: T1, BIKE (Homo sapiens, UniProt Q9NSY1); conditions: read-out: % Retention on Solid Support
T1 construct: purchased DiscoveRx KINOMEscan
Procedure, shortened: (§1)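 Panel of >400 kinases screened by active-site competition binding, compound at 1 and 10 µM.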

[2] = molecular target: T2, PAK3 (Homo sapiens, UniProt O75914); conditions: read-out: % Retention on Solid Support
T2 construct: purchased DiscoveRx KINOMEscan
Procedure, shortened: as §1

[3] = molecular target: T3, PIK3CA(M1043I) (Homo sapiens, UniProt P42336, M1043I); conditions: read-out: % Retention on Solid Support
T3 construct: purchased DiscoveRx KINOMEscan
Procedure, shortened: as §1

[4] = molecular target: T4, BRAF (Homo sapiens, UniProt P15056); conditions: read-out: % Retention on Solid Support
T4 construct: purchased DiscoveRx KINOMEscan
Procedure, shortened: as §1

[5] = molecular target: T5, FLT3 (Homo sapiens, UniProt P36888); conditions: read-out: % Retention on Solid Support
T5 construct: purchased DiscoveRx KINOMEscan
T5 sequence (P36888 27-993): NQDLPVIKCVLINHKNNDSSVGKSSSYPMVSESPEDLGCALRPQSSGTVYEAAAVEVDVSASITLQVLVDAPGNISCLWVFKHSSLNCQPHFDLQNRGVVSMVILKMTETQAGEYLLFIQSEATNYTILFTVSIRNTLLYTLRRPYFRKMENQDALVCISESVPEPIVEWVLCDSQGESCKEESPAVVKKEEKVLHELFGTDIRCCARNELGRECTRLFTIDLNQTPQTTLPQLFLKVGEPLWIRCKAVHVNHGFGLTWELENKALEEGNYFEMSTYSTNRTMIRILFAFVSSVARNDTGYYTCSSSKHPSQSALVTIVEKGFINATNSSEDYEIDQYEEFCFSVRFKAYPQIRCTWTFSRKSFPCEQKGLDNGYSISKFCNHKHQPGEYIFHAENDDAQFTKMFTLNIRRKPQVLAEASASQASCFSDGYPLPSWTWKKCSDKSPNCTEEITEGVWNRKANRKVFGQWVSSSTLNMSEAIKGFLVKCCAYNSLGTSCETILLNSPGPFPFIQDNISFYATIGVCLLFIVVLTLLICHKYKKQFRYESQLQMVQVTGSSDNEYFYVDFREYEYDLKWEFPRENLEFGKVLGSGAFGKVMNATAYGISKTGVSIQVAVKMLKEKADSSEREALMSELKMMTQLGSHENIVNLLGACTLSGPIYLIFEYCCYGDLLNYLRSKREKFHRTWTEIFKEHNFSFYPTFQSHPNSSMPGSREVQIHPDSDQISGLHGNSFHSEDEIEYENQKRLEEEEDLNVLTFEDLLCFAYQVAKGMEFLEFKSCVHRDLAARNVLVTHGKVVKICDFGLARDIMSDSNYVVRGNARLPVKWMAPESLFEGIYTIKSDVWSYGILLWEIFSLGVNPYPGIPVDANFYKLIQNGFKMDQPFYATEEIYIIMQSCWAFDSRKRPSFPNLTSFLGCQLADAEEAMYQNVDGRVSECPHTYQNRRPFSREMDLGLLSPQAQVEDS
Procedure, shortened: as §1

[6] = molecular target: T6, ASK1 (Homo sapiens, UniProt Q99683); conditions: read-out: % Retention on Solid Support
T6 construct: purchased DiscoveRx KINOMEscan
Procedure, shortened: as §1

[7] = molecular target: T7, AMPK-alpha1 (Homo sapiens, UniProt Q13131); conditions: read-out: % Retention on Solid Support
T7 construct: purchased DiscoveRx KINOMEscan
T7 sequence (Q13131 whole entry): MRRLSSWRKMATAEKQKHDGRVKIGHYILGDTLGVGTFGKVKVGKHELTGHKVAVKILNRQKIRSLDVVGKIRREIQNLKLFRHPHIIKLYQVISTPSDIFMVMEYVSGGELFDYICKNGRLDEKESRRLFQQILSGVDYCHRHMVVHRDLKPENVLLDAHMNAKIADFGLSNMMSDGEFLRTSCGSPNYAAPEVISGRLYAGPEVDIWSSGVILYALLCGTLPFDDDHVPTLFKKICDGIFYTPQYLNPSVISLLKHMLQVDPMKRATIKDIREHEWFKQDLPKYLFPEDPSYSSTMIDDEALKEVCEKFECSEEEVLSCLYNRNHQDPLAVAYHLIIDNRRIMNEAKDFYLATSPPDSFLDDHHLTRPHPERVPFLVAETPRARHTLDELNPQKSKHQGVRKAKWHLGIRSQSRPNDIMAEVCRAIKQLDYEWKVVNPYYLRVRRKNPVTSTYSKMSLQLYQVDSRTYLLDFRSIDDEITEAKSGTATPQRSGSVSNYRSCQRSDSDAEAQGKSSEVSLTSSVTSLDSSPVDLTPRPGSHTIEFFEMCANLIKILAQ
Procedure, shortened: as §1

[8] = molecular target: T8, ULK3 (Homo sapiens, UniProt Q6PHR2)
T8 construct: purchased DiscoveRx KINOMEscan
Procedure, shortened: as §1

[9] = molecular target: T9, PKAC-beta (Homo sapiens, UniProt P22694); conditions: read-out: % Retention on Solid Support
T9 construct: purchased DiscoveRx KINOMEscan
Procedure, shortened: as §1

[10] = molecular target: T10, DYRK1B (Homo sapiens, UniProt Q9Y463); conditions: read-out: % Retention on Solid Support
T10 construct: purchased DiscoveRx KINOMEscan
Procedure, shortened: as §1

[11] = molecular target: T11, MAK (Homo sapiens, UniProt P20794); conditions: read-out: % Retention on Solid Support
T11 construct: purchased DiscoveRx KINOMEscan
T11 sequence (P20794 whole entry): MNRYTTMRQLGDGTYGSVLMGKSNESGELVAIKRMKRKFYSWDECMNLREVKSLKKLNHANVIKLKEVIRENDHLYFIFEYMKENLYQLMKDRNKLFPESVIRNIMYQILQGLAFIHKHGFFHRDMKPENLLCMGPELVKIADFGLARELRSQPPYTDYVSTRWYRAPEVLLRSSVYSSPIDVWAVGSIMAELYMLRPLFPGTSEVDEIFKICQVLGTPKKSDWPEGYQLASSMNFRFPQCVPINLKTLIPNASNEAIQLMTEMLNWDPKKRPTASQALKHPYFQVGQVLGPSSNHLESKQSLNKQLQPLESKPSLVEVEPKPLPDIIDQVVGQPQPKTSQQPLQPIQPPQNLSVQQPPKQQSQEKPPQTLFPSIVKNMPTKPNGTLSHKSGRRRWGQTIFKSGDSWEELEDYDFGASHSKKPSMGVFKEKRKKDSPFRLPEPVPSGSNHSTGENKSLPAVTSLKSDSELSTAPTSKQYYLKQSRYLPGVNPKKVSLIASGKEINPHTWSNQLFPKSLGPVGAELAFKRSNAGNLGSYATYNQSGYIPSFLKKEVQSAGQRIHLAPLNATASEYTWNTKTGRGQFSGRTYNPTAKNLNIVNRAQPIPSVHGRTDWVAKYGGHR
Procedure, shortened: as §1

[12] = molecular target: T12, DCAMKL1 (Homo sapiens, UniProt O15075)
T12 construct: purchased DiscoveRx KINOMEscan
Procedure, shortened: as §1

[13] = molecular target: T13, MST2 (Homo sapiens, UniProt Q13188); conditions: read-out: % Retention on Solid Support
T13 construct: purchased DiscoveRx KINOMEscan
Procedure, shortened: as §1

[14] = molecular target: T14, EGFR(S752-I759del) (Homo sapiens, UniProt P00533, DEL752-759)
T14 construct: purchased DiscoveRx KINOMEscan
Procedure, shortened: as §1

[15] = molecular target: T15, KIT(V559D) (Homo sapiens, UniProt P10721, V559D); conditions: read-out: % Retention on Solid Support
T15 construct: purchased DiscoveRx KINOMEscan
Procedure, shortened: as §1

[16] = molecular target: T16, AKT1 (Homo sapiens, UniProt P31749); conditions: read-out: % Retention on Solid Support
T16 construct: purchased DiscoveRx KINOMEscan
Procedure, shortened: as §1

[17] = molecular target: T17, CAMK2D (Homo sapiens, UniProt Q13557); conditions: read-out: % Retention on Solid Support
T17 construct: purchased DiscoveRx KINOMEscan
Procedure, shortened: as §1

[18] = molecular target: T18, AXL (Homo sapiens, UniProt P30530); conditions: read-out: % Retention on Solid Support
T18 construct: purchased DiscoveRx KINOMEscan
Procedure, shortened: as §1

[19] = molecular target: T19, VEGFR2 (Homo sapiens, UniProt P35968); conditions: read-out: % Retention on Solid Support
T19 construct: purchased DiscoveRx KINOMEscan
T19 sequence (P35968 20-1356): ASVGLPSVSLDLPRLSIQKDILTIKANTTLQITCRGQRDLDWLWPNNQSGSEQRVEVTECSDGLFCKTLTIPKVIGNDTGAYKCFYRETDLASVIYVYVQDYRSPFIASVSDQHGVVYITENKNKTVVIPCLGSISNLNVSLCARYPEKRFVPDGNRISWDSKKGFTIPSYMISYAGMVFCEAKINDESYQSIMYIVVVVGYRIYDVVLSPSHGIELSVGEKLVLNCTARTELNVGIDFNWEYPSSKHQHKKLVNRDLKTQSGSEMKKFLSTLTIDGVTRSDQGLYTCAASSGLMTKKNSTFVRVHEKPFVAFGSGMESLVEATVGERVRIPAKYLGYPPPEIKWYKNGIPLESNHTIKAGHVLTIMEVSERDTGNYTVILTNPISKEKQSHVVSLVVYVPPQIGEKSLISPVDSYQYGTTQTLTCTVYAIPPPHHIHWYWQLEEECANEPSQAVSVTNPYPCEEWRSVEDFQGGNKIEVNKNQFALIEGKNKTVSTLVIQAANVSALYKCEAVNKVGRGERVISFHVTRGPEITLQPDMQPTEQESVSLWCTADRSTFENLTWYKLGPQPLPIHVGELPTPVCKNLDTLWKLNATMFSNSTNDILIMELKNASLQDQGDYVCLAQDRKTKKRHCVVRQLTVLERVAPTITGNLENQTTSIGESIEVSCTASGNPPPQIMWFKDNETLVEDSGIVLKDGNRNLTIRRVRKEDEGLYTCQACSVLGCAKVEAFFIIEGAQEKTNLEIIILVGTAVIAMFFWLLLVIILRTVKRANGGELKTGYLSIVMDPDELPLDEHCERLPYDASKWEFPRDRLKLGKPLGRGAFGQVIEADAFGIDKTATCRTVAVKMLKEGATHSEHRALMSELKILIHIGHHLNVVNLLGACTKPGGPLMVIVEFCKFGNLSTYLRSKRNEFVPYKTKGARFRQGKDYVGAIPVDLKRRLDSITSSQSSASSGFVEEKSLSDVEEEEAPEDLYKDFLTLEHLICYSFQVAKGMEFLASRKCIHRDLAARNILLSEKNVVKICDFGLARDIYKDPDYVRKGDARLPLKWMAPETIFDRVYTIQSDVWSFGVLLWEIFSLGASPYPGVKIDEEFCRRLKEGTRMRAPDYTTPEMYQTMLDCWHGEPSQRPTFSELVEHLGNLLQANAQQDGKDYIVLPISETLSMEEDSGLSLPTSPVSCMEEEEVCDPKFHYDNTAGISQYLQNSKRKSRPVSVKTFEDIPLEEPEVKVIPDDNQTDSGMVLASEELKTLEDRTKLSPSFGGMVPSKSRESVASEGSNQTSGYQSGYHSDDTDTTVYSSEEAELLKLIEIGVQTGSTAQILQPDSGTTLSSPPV
Procedure, shortened: as §1

[20] = molecular target: T20, KIT(V559D,T670I) (Homo sapiens, UniProt P10721, T670I/V559D); conditions: read-out: % Retention on Solid Support
T20 construct: purchased DiscoveRx KINOMEscan
Procedure, shortened: as §1

[21] = molecular target: T21, PIK3CA(E545K) (Homo sapiens, UniProt P42336, E545K); conditions: read-out: % Retention on Solid Support
T21 construct: purchased DiscoveRx KINOMEscan
Procedure, shortened: as §1

[22] = molecular target: T22, CDK4-cyclinD3 (Homo sapiens, UniProt P11802); conditions: 1 µM i-CDK9; read-out: % Retention on Solid Support
T22 construct: purchased DiscoveRx KINOMEscan
Procedure, shortened: as §1

[23] = molecular target: T23, FGFR2 (Homo sapiens, UniProt P21802); conditions: read-out: % Retention on Solid Support
T23 construct: purchased DiscoveRx KINOMEscan
T23 sequence (P21802 22-821): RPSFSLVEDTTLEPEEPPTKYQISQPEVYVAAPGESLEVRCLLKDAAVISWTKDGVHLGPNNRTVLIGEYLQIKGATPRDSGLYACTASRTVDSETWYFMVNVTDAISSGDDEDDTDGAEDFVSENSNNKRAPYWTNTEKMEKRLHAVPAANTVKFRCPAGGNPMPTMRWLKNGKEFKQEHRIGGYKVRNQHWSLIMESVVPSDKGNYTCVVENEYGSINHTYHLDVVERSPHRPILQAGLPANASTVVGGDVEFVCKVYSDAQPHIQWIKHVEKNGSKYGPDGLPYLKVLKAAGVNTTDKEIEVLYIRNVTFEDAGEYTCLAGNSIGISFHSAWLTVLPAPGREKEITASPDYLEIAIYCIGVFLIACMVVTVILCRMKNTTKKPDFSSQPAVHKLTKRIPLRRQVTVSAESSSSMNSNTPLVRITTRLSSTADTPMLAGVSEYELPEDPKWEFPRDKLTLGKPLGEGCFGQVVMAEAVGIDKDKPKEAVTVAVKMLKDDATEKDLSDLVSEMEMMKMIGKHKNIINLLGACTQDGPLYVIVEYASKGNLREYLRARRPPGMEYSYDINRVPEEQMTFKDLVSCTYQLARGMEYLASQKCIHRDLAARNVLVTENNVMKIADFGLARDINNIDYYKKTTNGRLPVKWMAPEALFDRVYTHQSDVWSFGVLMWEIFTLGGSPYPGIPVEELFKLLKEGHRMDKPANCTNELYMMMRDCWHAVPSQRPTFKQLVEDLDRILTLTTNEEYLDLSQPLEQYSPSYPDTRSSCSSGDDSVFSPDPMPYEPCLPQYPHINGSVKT
Procedure, shortened: as §1

[24] = molecular target: T24, LIMK1 (Homo sapiens, UniProt P53667); conditions: read-out: % Retention on Solid Support
T24 construct: purchased DiscoveRx KINOMEscan
T24 sequence (P53667 whole entry): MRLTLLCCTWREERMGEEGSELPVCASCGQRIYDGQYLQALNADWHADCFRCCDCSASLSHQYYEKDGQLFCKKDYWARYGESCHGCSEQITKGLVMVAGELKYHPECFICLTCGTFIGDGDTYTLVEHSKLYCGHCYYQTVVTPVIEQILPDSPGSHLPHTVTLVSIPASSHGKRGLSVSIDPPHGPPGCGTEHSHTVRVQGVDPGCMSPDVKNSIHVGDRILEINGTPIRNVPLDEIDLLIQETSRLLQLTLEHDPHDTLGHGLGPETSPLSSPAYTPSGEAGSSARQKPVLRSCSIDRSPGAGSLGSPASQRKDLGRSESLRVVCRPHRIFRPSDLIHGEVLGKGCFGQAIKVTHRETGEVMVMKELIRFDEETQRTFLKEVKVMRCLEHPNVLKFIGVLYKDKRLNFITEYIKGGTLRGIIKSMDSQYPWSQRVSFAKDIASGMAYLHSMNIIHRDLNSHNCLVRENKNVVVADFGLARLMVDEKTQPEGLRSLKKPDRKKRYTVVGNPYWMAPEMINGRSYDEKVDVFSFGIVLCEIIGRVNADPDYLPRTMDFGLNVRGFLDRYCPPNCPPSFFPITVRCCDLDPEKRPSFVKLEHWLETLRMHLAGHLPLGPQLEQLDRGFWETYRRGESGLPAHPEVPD
Procedure, shortened: as §1

[25] = molecular target: T25, p38-delta (Homo sapiens, UniProt O15264); conditions: read-out: % Retention on Solid Support
T25 construct: purchased DiscoveRx KINOMEscan
Procedure, shortened: as §1

[26] = molecular target: T26, CDK11 (Homo sapiens, UniProt Q9BWU1)
T26 construct: purchased DiscoveRx KINOMEscan
Procedure, shortened: as §1

[27] = molecular target: T27, TIE2 (Homo sapiens, UniProt Q02763); conditions: read-out: % Retention on Solid Support
T27 construct: purchased DiscoveRx KINOMEscan
Procedure, shortened: as §1

[28] = molecular target: T28, CSNK1D (Homo sapiens, UniProt P48730); conditions: read-out: % Retention on Solid Support
T28 construct: purchased DiscoveRx KINOMEscan
Procedure, shortened: as §1

[29] = molecular target: T29, LKB1 (Homo sapiens, UniProt Q15831); conditions: read-out: % Retention on Solid Support
T29 construct: purchased DiscoveRx KINOMEscan
Procedure, shortened: as §1

## N[C@H]1CC[C@H](Nc2cc(-c3cccc(NCc4cccc(F)c4)n3)c(Cl)cn2)CC1 [i-CDK9, N2′-(trans-4-aminocyclohexyl)-5′-chloro-N6-(3-fluorobenzyl)-2,4′-bipyridine-2′,6-diamine]
[1]; 1 µM i-CDK9
  remaining binding at 1 µM: 100%
[1]; 10 µM i-CDK9
  remaining binding at 10 µM: 63%
[2]; 1 µM i-CDK9
  remaining binding at 1 µM: 100%
[2]; 10 µM i-CDK9
  remaining binding at 10 µM: 98%
[3]; 1 µM i-CDK9
  remaining binding at 1 µM: 100%
[3]; 10 µM i-CDK9
  remaining binding at 10 µM: 75%
[4]; 1 µM i-CDK9
  remaining binding at 1 µM: 100%
[4]; 10 µM i-CDK9
  remaining binding at 10 µM: 70%
[5]; 1 µM i-CDK9
  remaining binding at 1 µM: 78%
[5]; 10 µM i-CDK9
  remaining binding at 10 µM: 100%
[6]; 1 µM i-CDK9
  remaining binding at 1 µM: 100%
[6]; 10 µM i-CDK9
  remaining binding at 10 µM: 100%
[7]; 1 µM i-CDK9
  remaining binding at 1 µM: 84%
[7]; 10 µM i-CDK9
  remaining binding at 10 µM: 93%
[8]; 1 µM i-CDK9
  % Retention on Solid Support: 94%
[8]; 10 µM i-CDK9
  % Retention on Solid Support: 88%
[9]; 1 µM i-CDK9
  remaining binding at 1 µM: 80%
[9]; 10 µM i-CDK9
  remaining binding at 10 µM: 80%
[10]; 1 µM i-CDK9
  remaining binding at 1 µM: 0.95%
[10]; 10 µM i-CDK9
  remaining binding at 10 µM: 0.7%
[11]; 1 µM i-CDK9
  remaining binding at 1 µM: 100%
[11]; 10 µM i-CDK9
  remaining binding at 10 µM: 30%
[12]; 1 µM i-CDK9
  % Retention on Solid Support: 100%
[12]; 10 µM i-CDK9
  % Retention on Solid Support: 100%
[13]; 1 µM i-CDK9
  remaining binding at 1 µM: 72%
[13]; 10 µM i-CDK9
  remaining binding at 10 µM: 100%
[14]; 1 µM i-CDK9
  % Retention on Solid Support: 77%
[14]; 10 µM i-CDK9
  % Retention on Solid Support: 53%
[15]; 1 µM i-CDK9
  remaining binding at 1 µM: 88%
[15]; 10 µM i-CDK9
  remaining binding at 10 µM: 90%
[16]; 1 µM i-CDK9
  remaining binding at 1 µM: 100%
[16]; 10 µM i-CDK9
  remaining binding at 10 µM: 100%
[17]; 1 µM i-CDK9
  remaining binding at 1 µM: 100%
[17]; 10 µM i-CDK9
  remaining binding at 10 µM: 100%
[18]; 1 µM i-CDK9
  remaining binding at 1 µM: 89%
[18]; 10 µM i-CDK9
  remaining binding at 10 µM: 80%
[19]; 1 µM i-CDK9
  remaining binding at 1 µM: 83%
[19]; 10 µM i-CDK9
  remaining binding at 10 µM: 93%
[20]; 1 µM i-CDK9
  remaining binding at 1 µM: 95%
[20]; 10 µM i-CDK9
  remaining binding at 10 µM: 100%
[21]; 1 µM i-CDK9
  remaining binding at 1 µM: 100%
[21]; 10 µM i-CDK9
  remaining binding at 10 µM: 95%
[22]
  remaining binding at 1 µM: 100%
[23]; 1 µM i-CDK9
  remaining binding at 1 µM: 97%
[23]; 10 µM i-CDK9
  remaining binding at 10 µM: 100%
[24]; 1 µM i-CDK9
  remaining binding at 1 µM: 90%
[24]; 10 µM i-CDK9
  remaining binding at 10 µM: 100%
[25]; 1 µM i-CDK9
  remaining binding at 1 µM: 100%
[25]; 10 µM i-CDK9
  remaining binding at 10 µM: 98%
[26]; 1 µM i-CDK9
  % Retention on Solid Support: 94%
[26]; 10 µM i-CDK9
  % Retention on Solid Support: 100%
[27]; 1 µM i-CDK9
  remaining binding at 1 µM: 82%
[27]; 10 µM i-CDK9
  remaining binding at 10 µM: 100%
[28]; 1 µM i-CDK9
  remaining binding at 1 µM: 47%
[28]; 10 µM i-CDK9
  remaining binding at 10 µM: 33%
[29]; 1 µM i-CDK9
  remaining binding at 1 µM: 93%
[29]; 10 µM i-CDK9
  remaining binding at 10 µM: 96%
